Experiment [1] deals with Seltzer model of chronic neuropathic pain. As to the kind of experiment: Established mechanical hyperalgesia in the Seltzer model of chronic neuropathic pain, single oral dose. The experiment is classed as in vivo, Wistar rats. Also on record: effect on established mechanical hyperalgesia: unit not given here.
Experiment [2] deals with T1, cathepsin S (Homo sapiens, UniProt P25774). Briefly: Cathepsin S inhibitory activity (stated in words). The experiment is classed as biochemical.
T1 sequence (P25774 115-331): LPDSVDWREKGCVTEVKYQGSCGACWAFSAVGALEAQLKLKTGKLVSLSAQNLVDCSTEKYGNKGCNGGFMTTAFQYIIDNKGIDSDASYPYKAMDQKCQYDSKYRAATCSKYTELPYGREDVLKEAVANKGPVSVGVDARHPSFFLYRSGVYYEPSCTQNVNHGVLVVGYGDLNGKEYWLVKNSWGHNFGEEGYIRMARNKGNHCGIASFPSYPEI
Another experiment has as its target T2, cathepsin K (Homo sapiens, UniProt P43235).
T2 sequence (P43235 115-329): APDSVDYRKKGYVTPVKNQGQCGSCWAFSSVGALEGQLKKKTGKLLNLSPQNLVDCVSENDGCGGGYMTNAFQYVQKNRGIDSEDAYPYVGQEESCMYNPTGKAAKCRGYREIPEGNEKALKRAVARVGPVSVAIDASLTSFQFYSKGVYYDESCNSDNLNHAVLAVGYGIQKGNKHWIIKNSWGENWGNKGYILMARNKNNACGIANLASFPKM
As to the kind of experiment: Cathepsin K inhibitory activity (stated in words). Type of experiment: biochemical.

Experiment [3] has as its system CCI model of chronic neuropathic pain. Briefly: Established mechanical hyperalgesia in the CCI model of chronic neuropathic pain, single oral dose (paw withdrawal threshold). The experiment is classed as in vivo, Wistar rats. Conditions: for % Reversal of Predose Hyperalgesia: CCI model day 14. The source says:
In the Chronic Constriction Injury (CCl) model (Bennett, G. J. and Xie, Y. K. Pain (1988) 33: 87-107) rats are anaesthetised and a small incision is made mid-way up one thigh (usually the left) to expose the sciatic nerve. The nerve is cleared of surrounding connective tissue and four ligatures of 4/0 chromic gut are tied loosely around the nerve with approximately 1 mm between each, so that the ligatures just barely constrict the surface of the nerve. The wound is closed with sutures and clips as described above. In sham animals the sciatic nerve is exposed but not ligated and the wound closed as in nonsham animals. In all chronic pain models (inflammatory and neuropathic) mechanical hyperalgesia is assessed by measuring paw withdrawal thresholds of both hindpaws to an increasing pressure stimulus using an Analgesymeter (Ugo-Basile, Milan). Mechanical allodynia is assessed by measuring withdrawal thresholds to non-noxious mechanical stimuli applied with von Frey hairs to the plantar surface of both hindpaws. Thermal hyperalgesia is assessed by measuring withdrawal latencies to a noxious thermal stimulus applied to the underside of each hindpaw. With all models, mechanical hyperalgesia and allodynia and thermal hyperalgesia develop within 1-3 days following surgery and persist for at least 50 days. For the assays described herein, drugs may be applied before and after surgery to assess their effect on the development of hyperalgesia, particularly approximately 14 days following surgery, to determine their ability to reverse established hyperalgesia. The percentage reversal of hyperalgesia is calculated as follows: [formula] In the experiments disclosed herein, Wistar rats (male) are employed in the pain models described above. Rats weigh approximately 120-140 grams at the time of surgery. All surgery is performed under enflurane/O2 inhalation anaesthesia. In all cases the wound is closed after the procedure and the animal allowed to recover. In all pain models employed, after a few days in all but the sham operated animals, a marked mechanical and thermal hyperalgesia and allodynia develops in which there is a lowering of pain threshold and an enhanced reflex withdrawal response of the hind-paw to touch, pressure or thermal stimuli. […] In the majority of animals the toes of the affected hind paw are held together and the foot turned slightly to one side; in some rats the toes are also curled under. The gait of the ligated rats varies, but limping is uncommon. […] The rats tend to be very sensitive to touch and may vocalise. Otherwise the general health an condition of the rats is good. Rats are subjected to the surgical procedures according to the CCl chronic pain model described above. Paw withdrawal thresholds are measured prior to surgery, 14 days later when hyperalgesia is established and then at 1, 3 and 6 hours following a single oral gavage dose of compound B. Results are provided in Table 2, below. Each time point represents data from 6 animals per group. Vehicle control: PEG/methyl cellulose (0.5%)+Tween 80 (0.25%)(20:80), 1 ml p.o.

For experiment [4] the test system is unchanged. As to the kind of experiment: Mechanical hyperalgesia in the CCI model, twice daily oral dosing throughout development of hyperalgesia. The experiment is classed as in vivo, Wistar rats. The source says:
In the Chronic Constriction Injury (CCl) model (Bennett, G. J. and Xie, Y. K. Pain (1988) 33: 87-107) rats are anaesthetised and a small incision is made mid-way up one thigh (usually the left) to expose the sciatic nerve. The nerve is cleared of surrounding connective tissue and four ligatures of 4/0 chromic gut are tied loosely around the nerve with approximately 1 mm between each, so that the ligatures just barely constrict the surface of the nerve. The wound is closed with sutures and clips as described above. In sham animals the sciatic nerve is exposed but not ligated and the wound closed as in nonsham animals. In all chronic pain models (inflammatory and neuropathic) mechanical hyperalgesia is assessed by measuring paw withdrawal thresholds of both hindpaws to an increasing pressure stimulus using an Analgesymeter (Ugo-Basile, Milan). Mechanical allodynia is assessed by measuring withdrawal thresholds to non-noxious mechanical stimuli applied with von Frey hairs to the plantar surface of both hindpaws. Thermal hyperalgesia is assessed by measuring withdrawal latencies to a noxious thermal stimulus applied to the underside of each hindpaw. With all models, mechanical hyperalgesia and allodynia and thermal hyperalgesia develop within 1-3 days following surgery and persist for at least 50 days. For the assays described herein, drugs may be applied before and after surgery to assess their effect on the development of hyperalgesia, particularly approximately 14 days following surgery, to determine their ability to reverse established hyperalgesia. In the experiments disclosed herein, Wistar rats (male) are employed in the pain models described above. Rats weigh approximately 120-140 grams at the time of surgery. All surgery is performed under enflurane/O2 inhalation anaesthesia. In all cases the wound is closed after the procedure and the animal allowed to recover. In all pain models employed, after a few days in all but the sham operated animals, a marked mechanical and thermal hyperalgesia and allodynia develops in which there is a lowering of pain threshold and an enhanced reflex withdrawal response of the hind-paw to touch, pressure or thermal stimuli. […] In the majority of animals the toes of the affected hind paw are held together and the foot turned slightly to one side; in some rats the toes are also curled under. The gait of the ligated rats varies, but limping is uncommon. […] The rats tend to be very sensitive to touch and may vocalise. Otherwise the general health an condition of the rats is good. Data disclosed herein indicate that compound B can reverse the mechanical hyperalgesia induced in the CCl model of neuropathic pain in a dose dependent manner with a D50 in the range 30-100 mg/kg, with up to 70% reversal at 100 mg/kg at 1 hour post dosing. […] In the twice daily study, paw withdrawal thresholds were measured prior to surgery and then daily 3 hours following the second oral dosing with compound B. The last dose was given on day 13. Each time point in Table 3 represents data from 6 animals per group. Vehicle control: PEG/methyl cellulose (0.5%)+Tween 80 (0.25%)(20:80), 1 ml p.o.

The test system of experiment [5] is FCA-induced model of chronic inflammatory pain. As to the kind of experiment: Mechanical hyperalgesia in the FCA-induced model of chronic inflammatory pain. The experiment is classed as in vivo, rats. Conditions: 100 mg/kg p.o., 24 hours after FCA induction, data not shown. How it is done: The Complete Freund's Adjuvant-induced mechanical hyperalgesia may be used as a model of chronic inflammatory pain (Stein, C. et al. Pharmacol. Biochem. Behav. (1988) 31:445-451). In this model, typically a male Sprague-Dawley orWistar rat (200-250 g) receives an intraplantar injection of 25 μl complete Freund's adjuvant into one hind paw. A marked inflammation occurs in this hind paw. Drugs are generally administered for evaluation of efficacy, 24 hours after the inflammatory insult, when mechanical hyperalgesia is considered fully established. In all chronic pain models (inflammatory and neuropathic) mechanical hyperalgesia is assessed by measuring paw withdrawal thresholds of both hindpaws to an increasing pressure stimulus using an Analgesymeter (Ugo-Basile, Milan). Mechanical allodynia is assessed by measuring withdrawal thresholds to non-noxious mechanical stimuli applied with von Frey hairs to the plantar surface of both hindpaws. Thermal hyperalgesia is assessed by measuring withdrawal latencies to a noxious thermal stimulus applied to the underside of each hindpaw. With all models, mechanical hyperalgesia and allodynia and thermal hyperalgesia develop within 1-3 days following surgery and persist for at least 50 days. […] The percentage reversal of hyperalgesia is calculated as follows: [formula] […]

The target of experiment [6] is T1, cathepsin S. Particulars: per U.S. Pat. No. 4,518,528; cited from earlier work.

Starred links: 1 amine or outer side, 2 acyl side, 3 side chain; linkers in the order of their positions; H or OH if unused. Non-standard residues stand in square brackets, D forms with d. Residues, ends and D or L forms follow the SMILES beside them. *: point of attachment. hPhe = N[C@@H](CCc1ccccc1)C(=O)O; Morpholide = C1CN(*)CCO1; CO = O=C([*:1])[*:2]; CH2F = FC*

For `CC(C)(C)Cn1c(Cc2cccs2)cc2cnc(C#N)nc21` [Compound A, 7-(2,2-Dimethyl-propyl)-6-thiophen-2-ylmethyl-7.H.-pyrrolo[2,3-.d.]pyrimidine-2-carbonitrile], the “effect on established mechanical hyperalgesia” value (“effect” below) in experiment [1] (Cmpd A 3 mg/kg single oral dose, 1 hr) is recorded as 1.32; in experiment [1] (Cmpd A 3 mg/kg single oral dose, 3 hrs) it was 3.64; in experiment [1] (Cmpd A 3 mg/kg single oral dose, 6 hrs), −1.06; in experiment [1] (Cmpd A 10 mg/kg single oral dose, 1 hr) it was 8.63; in experiment [1] (Cmpd A 10 mg/kg single oral dose, 3 hrs), 52.94; in experiment [1] (Cmpd A 10 mg/kg single oral dose, 6 hrs) it was 17.63. The “effect” value is given as 31.15 in experiment [1] (Cmpd A 30 mg/kg single oral dose, 1 hr); 68.32 in experiment [1] (Cmpd A 30 mg/kg single oral dose, 3 hrs); 23.05 in experiment [1] (Cmpd A 30 mg/kg single oral dose, 6 hrs). Further, the “D50 for reversal of hyperalgesia” value in experiment [1] (Seltzer model, single oral dose) fell in the range of 3 to 10 mg/kg. Moreover, the “cathepsin S inhibitory activity (in words)” value at cathepsin S [2] was “mixed cathepsin S/K inhibitory activity”. The “cathepsin K inhibitory activity (in words)” value on cathepsin K is on record as “mixed cathepsin S/K inhibitory activity”.

Take `O=C(CF)[C@H](CCc1ccccc1)NC(=O)[C@H](Cc1ccccc1)NC(=O)N1CCOCC1` [Compound B, 3-[(4-morpholinylcarbonyl)-phenylalanylamido]-1-fluoro-5-phenyl-2-pentanone] ({Morpholide-CO}-Phe-[hPhe]-CH2F): the “% Reversal of Predose Hyperalgesia” value in experiment [3] (10 mg/kg single oral dose, 1 hr post dose) is listed as 26.16%; in experiment [3] (10 mg/kg single oral dose, 3 hrs post dose), 38.19%; in experiment [3] (10 mg/kg single oral dose, 6 hrs post dose), 18.29%; in experiment [3] (30 mg/kg single oral dose, 1 hr post dose), 40.97%; in experiment [3] (30 mg/kg single oral dose, 3 hrs post dose), 38.89%; in experiment [3] (30 mg/kg single oral dose, 6 hrs post dose), 13.89%. Besides, the “% Reversal of Predose Hyperalgesia” value is recorded as 76.49% in experiment [3] (100 mg/kg single oral dose, 1 hr post dose); 55.06% in experiment [3] (100 mg/kg single oral dose, 3 hrs post dose); 29.76% in experiment [3] (100 mg/kg single oral dose, 6 hrs post dose). Moreover, the “reversal of mechanical hyperalgesia” value in experiment [3] (CCI model, 100 mg/kg, 1 hour post dosing) is “up to 70%”. In addition, the “D50 for reversal of mechanical hyperalgesia” value in experiment [3] (CCI model, single oral dose) lay in the range of 30 to 100 mg/kg. Further, the “Mean Paw pressure withdrawal threshold” value in experiment [4] (30 mg/kg orally twice daily, day 1 post surgery, 3 hours after second dose) stood at 100.00 g; in experiment [4] (30 mg/kg orally twice daily, day 2 post surgery, 3 hours after second dose) it was 70.83 g; in experiment [4] (30 mg/kg orally twice daily, day 3 post surgery, 3 hours after second dose) it was 79.17 g; in experiment [4] (30 mg/kg orally twice daily, day 4 post surgery, 3 hours after second dose) it was 80.00 g; in experiment [4] (30 mg/kg orally twice daily, day 6 post surgery, 3 hours after second dose), 80.80 g; in experiment [4] (30 mg/kg orally twice daily, day 8 post surgery, 3 hours after second dose) it was 80.00 g. Besides, the “Mean Paw pressure withdrawal threshold” value in experiment [4] (30 mg/kg orally twice daily, day 10 post surgery, 3 hours after second dose) amounted to 77.50 g; in experiment [4] (30 mg/kg orally twice daily, day 13 post surgery (last dose), 3 hours after second dose) it was 79.17 g; in experiment [4] (day 15 post surgery, after end of 30 mg/kg twice daily treatment (last dose day 13)) it was 60.83 g. Besides, the “reversing mechanical hyperalgesia (in words)” value in experiment [4] (CCI model, 30 mg/kg orally, twice daily throughout development of hyperalgesia) is “acutely effective”. Also, the “effect” value stood at 33.47 in experiment [1] (Cmpd B 30 mg/kg single oral dose, 1 hr); 41.57 in experiment [1] (Cmpd B 30 mg/kg single oral dose, 3 hrs); 11.97 in experiment [1] (Cmpd B 30 mg/kg single oral dose, 6 hrs). The “maximal reversal of mechanical hyperalgesia” value in experiment [5] is reported as 46%. For the same compound, the “inhibition of cathepsin S in vitro (in words)” value at cathepsin S [6] is given as “known to inhibit”.
